Measurements reported in patent US6624317B1, “Taxoid conjugates as antimitotic and antitumor agents” (priority 2000, dated 2003).
Read-outs that look alike come from different tables or passages of the source.

Experiments:
[1] = test system: epiderimoid carcinoma of the nasopharynx (KB); assay: in vitro cytotoxicity assay, KB; format: cell-based, human; conditions: drug exposure 3 days
Experimental: (§1) Biological Assay. The in vitro cytotoxicity assay was carried out according to procedures described in Rubinstein et al. (P. Ferguson et al., Cancer Res. 1988, 48, 5956-5964). […] The human tumor cell line panel consisted of epiderimoid carcinoma of the nasopharynx (KB), lung carcinoma (A-549), ileocecal carcinoma (HCT-8), renal cancer (CAKI-1), breast cancer (MCF-7), melanoma cancer (SKMEL-2), and ovarian cancer (1A9). The drug resistant cell line panel consisted of three KB-derivatives, -7d, -CPT, and -VCR. The properties of these cells are described elsewhere (P. Ferguson et al., Cancer Res. 1988, 48, 5956-5964; D. Beidler et al., Cancer Res. 1996, 56, 345-353). […] They were a generous gift of Dr. P. Giannakakou (P. Giannakakou et al., J. Biol. Chem. 1997, 27, 17118-17125). Cells were cultured at 37° C. in RPMI-1640 with 100 ug/mL kanamycin and 10% (v/v) fetal bovine serum in a humidified atmosphere containing 5% CO2. Initial seeding densities varied among the cell lines to ensure a final absorbance of 1-2.5 A562 units. Drug exposure was for 3 days, and the ED50 value, the drug concentration that reduced the absorbance by 50%, was interpolated from dose-response data.

lung carcinoma (A-549) = assay: in vitro cytotoxicity assay, A549; conditions: read-out: Cytotoxicity (ED50) A549
Experimental: as §1

[2] = test system: ileocecal carcinoma (HCT-8); assay: in vitro cytotoxicity assay, HCT-8; conditions: read-out: Cytotoxicity (ED50) HCT-8
Experimental: as §1

renal cancer (CAKI-1) = assay: in vitro cytotoxicity assay, CAKI-1; conditions: read-out: Cytotoxicity (ED50) CAKI-1
Experimental: as §1

breast cancer (MCF-7) = assay: in vitro cytotoxicity assay, MCF-7; conditions: read-out: Cytotoxicity (ED50) MCF-7
Experimental: as §1

[3] = test system: melanoma cancer (SKMEL-2); assay: in vitro cytotoxicity assay, SK-MEL-2; conditions: read-out: Cytotoxicity (ED50) SK-MEL-2
Experimental: as §1

ovarian cancer (1A9) = assay: in vitro cytotoxicity assay, 1A9; conditions: read-out: Cytotoxicity (ED50) 1A9 (OVCAR)
Experimental: as §1

PAX-10 = assay: cytotoxicity in paclitaxel-resistant 1A9 sub-line PAX-10; format: cell-based, human; conditions: PAX-10 paclitaxel-resistant 1A9 sub-line
Experimental: as §1
(§2) The newly synthesized taxoid-4′-O-demethyl epipodophyllotoxin conjugates were evaluated in house using standard cytotoxicity assays in human tumor (HTCL) and drug-resistant (DRCL) cell lines. Reference compounds were paclitaxel (1), cephalomannine (2), and epipodophyllotoxins [etoposide (5) and GL-331 (7), see FIG. 1]. The HTCL panel was comprised of KB, A549, HCT-8, CAKI-1, MCF-7, SK-MEL-2, and 1A9 cell lines. Two paclitaxel-resistant 1A9 sub-lines designated as PAX-10 and PAX-22 were also tested as part of the DRCL panel. Other resistant-cell lines were KB derivatives expressing various mechanisms or multi-drug resistance as described elsewhere (P. Ferguson et al., Cancer Res. 1988, 48, 5956-5964; D. Beidler et al., Cancer Res. 1996, 56, 345-353).

[4] = test system: protein-linked DNA breaks (PLDB); conditions: drug treated cells; earlier work; cited from earlier work
[5] = test system: human KB and DU-145 tumor cells in nude mice; conditions: earlier work; cited from earlier work
KB-7d = assay: cytotoxicity in drug resistant cell line KB-7d; format: cell-based, human; conditions: KB-7d drug resistant KB derivative
Experimental: as §1, §2

KB-VCR = assay: cytotoxicity in drug resistant cell line KB-VCR; format: cell-based, human; conditions: KB-VCR drug resistant KB derivative
Experimental: as §1, §2

KB-CPT = assay: cytotoxicity in drug resistant cell line KB-CPT; format: cell-based, human; conditions: KB-CPT drug resistant KB derivative
Experimental: as §1, §2

PAX-22 = assay: cytotoxicity in paclitaxel-resistant 1A9 sub-line PAX-22; format: cell-based, human; conditions: PAX-22 paclitaxel-resistant 1A9 sub-line
Experimental: as §1, §2

leukemia cell lines = assay: NCI human tumor cell lines, leukemia; format: cell-based; conditions: average over all cell lines of the tumor type; data provided by the NCI
[6] = test system: Non-small cell lung cancer cell lines; assay: NCI human tumor cell lines, NSCL; format: cell-based; conditions: average over all cell lines of the tumor type; data provided by the NCI
Colon cell lines = assay: NCI human tumor cell lines, colon; format: cell-based; conditions: average over all cell lines of the tumor type; data provided by the NCI
[7] = test system: Central nervous system cancer cell lines; assay: NCI human tumor cell lines, CNS; format: cell-based; conditions: average over all cell lines of the tumor type; data provided by the NCI
melanoma cell lines = assay: NCI human tumor cell lines, melanoma; format: cell-based; conditions: average over all cell lines of the tumor type; data provided by the NCI
ovarian cell lines = assay: NCI human tumor cell lines, ovarian; format: cell-based; conditions: average over all cell lines of the tumor type; data provided by the NCI
prostate cell lines = assay: NCI human tumor cell lines, prostate; format: cell-based; conditions: average over all cell lines of the tumor type; data provided by the NCI
Topoisomerase II = Topoisomerase II activity assay (inhibition of topo II in vitro); format: biochemical; conditions: NA^1 not active at 50 uM, NA^2 not active at 100 uM
Excerpt: (§3) Protein-Linked DNA Break and Topoisomerase 11 Activity Assays. The procedures were done according to detailed published methods (K. Bastow et al., Bioorg. Med. Chem. 1997, 5, 1481-1488).

[8] = test system: Cellular protein-DNA complex formation; assay: Protein-linked DNA break assay (cellular protein-DNA complex formation); format: cell-based; conditions: for Cellular protein-DNA complex formation: Etoposide given as 100, NA^1 not active at 50 uM, NA^2 not active at 100 uM
Excerpt: as §3

[9] = test system: human tumor (HTCL) cell lines; assay: standard cytotoxicity assays in human tumor cell lines (HTCL panel, overall); conditions: summary of Table 2
Experimental: as §1
The newly synthesized taxoid-4′-O-demethyl epipodophyllotoxin conjugates were evaluated in house using standard cytotoxicity assays in human tumor (HTCL) and drug-resistant (DRCL) cell lines. […]

[10] = test system: paclitaxel resistant cells; assay: cytotoxicity against paclitaxel resistant cells (overall); format: cell-based, human; conditions: compared with the unconjugated components, Table 3
Experimental: as §1, §2

[11] = A549, drug exposure 3 days, NA = not active
[12] = HCT-8, drug exposure 3 days, NA = not active
[13] = SK-MEL-2, drug exposure 3 days, NA = not active
[14] = 1A9 (OVCAR), drug exposure 3 days

| SMILES | Cytotoxicity (ED50) KB [1] [µM] | EC50 (lung carcinoma (A-549); Homo sapiens, A549, 72 h) [µM] | EC50 ([2]; Homo sapiens, HCT-8, 72 h) [µM] | EC50 (ovarian cancer (1A9); Homo sapiens, 72 h) [µM] | Resistance Fold PAX-10 (PAX-10) | EC50 (lung carcinoma (A-549); [11]) [µM] | EC50 [2, 12] [µM] | EC50 (renal cancer (CAKI-1); CAKI-1, drug exposure 3 days) [µM] | EC50 (breast cancer (MCF-7); MCF-7, drug exposure 3 days) [µM] | EC50 [3, 13] [µM] | EC50 (ovarian cancer (1A9); [14]) [µM] | Resistance Fold KB-7d (KB-7d) | Resistance Fold KB-VCR (KB-VCR) | Resistance Fold KB-CPT (KB-CPT) | Resistance Fold PAX-22 (PAX-22) | Inhibition of Topo II IC100 (Topoisomerase II) [µM] | Cellular protein-DNA complex formation [8] | other results |
| --- | --- | --- | --- | --- | --- | --- | --- | --- | --- | --- | --- | --- | --- | --- | --- | --- | --- | --- |
| C/C=C(\C)C(=O)N[C@@H](c1ccccc1)[C@@H](O)C(=O)O[C@H]1C[C@@]2(O)[C@@H](OC(=O)c3ccccc3)[C@@H]3[C@]4(OC(C)=O)CO[C@@H]4C[C@H](O)[C@@]3(C)C(=O)[C@H](OC(C)=O)C(=C1C)C2(C)C [Cephalomannine, cephalomannine, reference compound] | 0.002 | 0.009 | 0.047 | 0.003 | 40 |  |  |  |  |  |  |  |  |  |  |  |  | EC50 (renal cancer (CAKI-1); Homo sapiens, CAKI-1, 72 h): > 0.3 µM; EC50 (breast cancer (MCF-7); Homo sapiens, MCF7, 72 h): 0.167 µM; EC50 ([3]; Homo sapiens, SK-MEL-2, 72 h): 0.134 µM |
| CC[C@@]1(O)C(=O)OCc2c1cc1n(c2=O)Cc2c-1nc1ccccc1c2C=Nc1ccc(N[C@@H]2c3cc4c(cc3[C@@H](c3cc(OC)c(O)c(OC)c3)[C@H]3C(=O)OC[C@@H]32)OCO4)cc1 [Compound 3] |  |  |  |  |  |  |  |  |  |  |  |  |  |  |  |  |  | induction of protein-linked DNA breaks (PLDB) (in words) [4]: induced protein-linked DNA breaks (PLDB) in a concentration dependent manner; in vivo antitumor activity (in words) [5]: more active than either etoposide or CPT |
| CC[C@@]1(O)C(=O)OCc2c1cc1n(c2=O)Cc2c-1nc1ccccc1c2C=Nc1ccccc1N[C@@H]1c2cc3c(cc2[C@@H](c2cc(OC)c(O)c(OC)c2)[C@H]2C(=O)OC[C@@H]21)OCO3 [Compound 4] |  |  |  |  |  |  |  |  |  |  |  |  |  |  |  |  |  | induction of protein-linked DNA breaks (PLDB) (in words) [4]: induced protein-linked DNA breaks (PLDB) in a concentration dependent manner |
| C/C=C(\C)C(=O)N[C@@H](c1ccccc1)[C@@H](OC(=O)c1ccc(C=N[C@@H]2c3cc4c(cc3[C@@H](c3cc(OC)c(O)c(OC)c3)[C@H]3C(=O)OC[C@@H]32)OCO4)cc1)C(=O)O[C@H]1C[C@@]2(O)[C@@H](OC(=O)c3ccccc3)[C@@H]3[C@]4(OC(C)=O)CO[C@@H]4C[C@H](O)[C@@]3(C)C(=O)[C@H](OC(C)=O)C(=C1C)C2(C)C [Compound 14] | 0.03 |  |  |  | >36 | 0.7 | 2.78 | > 5 | 1.23 | 8.9 | 0.14 |  |  |  |  |  |  |  |
| COc1cc([C@@H]2c3cc4c(cc3[C@@H](Nc3ccc(N=Cc5ccc(C(=O)O[C@@H](C(=O)O[C@H]6C[C@@]7(O)[C@@H](OC(=O)c8ccccc8)[C@@H]8[C@]9(OC(C)=O)CO[C@@H]9C[C@H](O)[C@@]8(C)C(=O)[C@H](OC(C)=O)C(=C6C)C7(C)C)[C@@H](NC(=O)c6ccccc6)c6ccccc6)cc5)cc3)[C@H]3COC(=O)[C@H]23)OCO4)cc(OC)c1O [Compound 15] | 0.23 |  |  |  | >17 | 2.8 | > 0.1 | > 4 | 1.86 | > 40 | 0.3 | 1 | 8 | 1 | 8 | 100 | 25 +/− 11% | log GI50 leukemia (leukemia cell lines): −6.02; log GI50 NSCL [6]: −5.50; log GI50 Colon (Colon cell lines): −5.12; log GI50 CNS [7]: −5.54; log GI50 melanoma (melanoma cell lines): −5.01; log GI50 ovarian (ovarian cell lines): −4.95; log GI50 prostate (prostate cell lines): −5.06; intracellular poisoning / stimulation of protein-DNA breaks in cells (in words) ([8]; in cells): intracellular poisons; cytotoxicity in human tumor cell lines (in words) [9]: exhibited different cytotoxic activity from both precursors; activity against paclitaxel resistant cells (in words) [10]: enhanced activity against paclitaxel resistant cells |
| C/C=C(\C)C(=O)N[C@@H](c1ccccc1)[C@@H](OC(=O)c1ccc(C=Nc2ccc(N[C@@H]3c4cc5c(cc4[C@@H](c4cc(OC)c(O)c(OC)c4)[C@H]4C(=O)OC[C@@H]43)OCO5)cc2)cc1)C(=O)O[C@H]1C[C@@]2(O)[C@@H](OC(=O)c3ccccc3)[C@@H]3[C@]4(OC(C)=O)CO[C@@H]4C[C@H](O)[C@@]3(C)C(=O)[C@H](OC(C)=O)C(=C1C)C2(C)C [Compound 16] | 1.40 |  |  |  | 7.5 | 3.55 | > 40 | > 10 | > 5 | > 40 | 1.12 |  |  |  |  |  |  | activity against paclitaxel resistant cells (in words) [10]: enhanced activity against paclitaxel resistant cells |
| COc1cc([C@@H]2c3cc4c(cc3[C@@H](O[C@@H]3O[C@@H]5CO[C@@H](C)O[C@H]5[C@H](O)[C@H]3O)[C@H]3COC(=O)[C@H]23)OCO4)cc(OC)c1O [Etoposide, etoposide, reference compound] | 0.20 | 1.95 | > 5 | 0.6 | >16 |  |  |  |  |  |  | 119 | 153 | 1 | >16 | 100 | 100% | EC50 (renal cancer (CAKI-1); Homo sapiens, CAKI-1, 72 h): 2.2 µM; EC50 (breast cancer (MCF-7); Homo sapiens, MCF7, 72 h): > 5 µM |
| COc1cc([C@@H]2c3cc4c(cc3[C@@H](Nc3ccc([N+](=O)[O-])cc3)[C@H]3COC(=O)[C@H]23)OCO4)cc(OC)c1O [GL-331, reference compound] | 1.86 |  |  |  | 13 | 0.48 | 3.38 | 1.8 | 9.29 | 5.95 | 0.2 | 2 | 3 | 1 | 8 | 50 | 134 +/− 7% |  |
| CC(=O)O[C@H]1C(=O)[C@@]2(C)[C@H]([C@H](OC(=O)c3ccccc3)[C@]3(O)C[C@H](OC(=O)[C@H](O)[C@@H](NC(=O)c4ccccc4)c4ccccc4)C(C)=C1C3(C)C)[C@]1(OC(C)=O)CO[C@@H]1C[C@@H]2O [Paclitaxel, paclitaxel, reference compound] | 0.016 | 0.006 | 0.013 | 0.002 | 24 |  |  |  |  |  |  | 1 | 15 | 1 | 24 |  |  |  |
